From a melting point compilation (Tetko et al.; mined from patent text by program, amines drawn as free bases though some values may be those of a salt)

Structure (SMILES)	melting point [°C]
O=C(CNC(=O)c1ccc([N+](=O)[O-])c(F)c1)OCC(Cl)(Cl)Cl	142 to 144
CCN1C(=O)C(C)(C)C(=O)N(C)c2cc(OCCCn3cc(I)c(=O)c4ccccc43)ccc21	97 to 106
CC(C(=O)O)c1ccc2cc(OCCCCCCc3cccc(O)c3O)ccc2c1 (stereo not given)	136 to 139
C[C@H](NC(=O)OC(C)(C)C)C(=O)OCCCCNc1cccc2c1C(=O)c1ccccc1C2=O	100
C[Si](C)(C)c1ccc2c(c1)C([Si](C)(C)C)([Si](C)(C)C)c1cc([Si](C)(C)C)ccc1-2	141 to 142
CC(=O)c1ccc(Oc2ccc(S(C)(=O)=O)cc2)cc1	131 to 132
N=C(NO)c1cccc(-c2ccc(O)c(-c3nc4cc(C(=N)NO)ccc4[nH]3)c2)c1	352 to 355
N#Cc1cc(-c2nccs2)nn1-c1ccc(NC(=O)c2ccncc2F)cc1	210 to 211
OCC1OC(n2cnc3c2ncn2ccnc32)CC1O (stereo not given)	138 to 141
CN1CCNC1=Nc1ccccc1N1CCOCC1	156
COC1OC(=O)C(OC)(OC)C1Cl (stereo not given)	90
O=C(O)CCCOc1cc(C(F)(F)F)cc(C(F)(F)F)c1	85 to 87
N#CC1=C(Nc2cc(F)cc(F)c2)CCC1	113 to 115
CC12C=CCC1C1CCC3=C(CCC(=O)C3)C1CC2 (stereo not given)	112 to 116
CCCCCC(CC(=O)Nc1cc(CCCNC(N)=O)ccc1C(C)(C)C)c1ccc(OC)cc1OC (stereo not given)	125
COc1ccc(S(=O)(=O)NCCc2ccc(OCC(=O)O)cc2)cc1	82 to 83
CCCCCCNc1ccc(OC2CCN(C(=O)OC(C)(C)C)CC2)cc1	46 to 47
CC(C)OCCOc1c(-c2ccc(S(N)(=O)=O)cc2)cnn(-c2ccc(F)c(F)c2)c1=O	54 to 56
O=C1CNc2cc(Cl)ccc2N1	171 to 174
C=C1C(O)C(COC(=O)CCCCCCCCCCCCCCCCC)OC1n1ccc(NC(=O)CCCCCCCCCCCCCCCCC)nc1=O (stereo not given)	135 to 139
CC(C)(C)c1cc(-c2cc(C(C)(C)C)cc(C(C)(C)C)c2O)c(O)c(C(C)(C)C)c1	190 to 195
Nc1cc2c(Nc3ccc(F)c(Cl)c3)ncnc2cc1OCC1CCOCC1	221
Fc1ccc(Cn2c(NC3CCN(CCn4c(=S)[nH]c5ccccc54)CC3)nc3ccccc32)cc1	235
C=CC(=O)NC(=O)NCCS(=O)C=C (stereo not given)	109 to 110
Cn1c(=O)[nH]c(=O)c2c1ncn2CCCCCCO	219 to 220
Cc1ccc(-n2nc(C(F)F)cc2-c2ccc(S(C)(=O)=O)cc2)cc1Br	136 to 138
COc1cc2c(cc1Nc1ncc(F)c(Nc3ccc(N4CCOCC4)cc3OC)n1)CCN(CC(=O)OC(C)C)CC2	94 to 110

Now from value to compound:

melting point [°C]	Structure (SMILES)
114 to 116	O=[N+]([O-])C1CC=CCC1c1ccccc1 (stereo not given)
220 to 223	CN1c2ccccc2N(C(=O)c2ccc(-c3ccccc3)cc2)Cc2cccnc21
204 to 206	Cn1c2ccccc2c2nc3cccc(CCl)c3nc21
230	O=C1c2ccccc2C(=O)c2oc(-c3cccc(F)c3)nc21
154 to 155	Cc1ccc(CN2CCN3C(=O)OC(c4ccccc4)(c4ccccc4)C3C2)cc1 (stereo not given)
206 to 210	O=C(O)Cc1c(C(=O)c2ccccc2)[nH]c2ccc(Cl)c(Cl)c12
199 to 200	O=C(O)c1cc(Cl)cc2c1NC(c1ccccc1)CC2 (stereo not given)
157 to 158	O=C(Nc1ccc(-c2ncon2)cc1)Oc1ccccc1
189 to 190	O=C(Cc1ccccc1C(=O)O)Nc1cccc(/C=C/c2nc(C3CCCCCC3)cs2)c1
93 to 94	CN(C)C=CC(=O)C(c1ccccc1)c1ccccc1
199 to 201	CCc1cc(CCc2nc3ccccc3o2)c(=S)[nH]c1C
106 to 107	Oc1cc2c(cc1OCCCOc1ccccc1)OCC2
181 to 184	CCCOc1ccccc1C(=O)Nc1ncccc1C(N)=O
